From PMC4210897, “Antimicrobial Activity of Peptides Derived from Olive Flounder Lipopolysaccharide Binding Protein/Bactericidal Permeability-Increasing Protein (LBP/BPI)” (Marine Drugs, 2014)
Where no end group is shown, it is not given here.

Tests used:
B. subtilis KCTC1021 = test: Ultrasensitive radial diffusion assay (URDA), MEC; assay type: cell-based, Bacillus subtilis; details: B. subtilis KCTC1021, Gram +, 10 mM PB pH 6.6, 37 °C, x-intercept of units vs log10 concentration, triplicate averaged
Protocol: (§1) The antimicrobial activity of the purified peptide was assessed as described previously. We tested the synthetic peptides against several Gram-positive bacteria including two Bacillus subtilis strains, Micrococcus luteus, Staphylococcus aureus, and Streptococcus iniae, Gram-negative bacteria including three Escherichia coli strains, Aeromonas hydrophila, Edwardsiella tarda, Pseudomonas aeruginosa, Vibrio parahemolyticus, and Salmonella enteric, as well as the yeast Candida albicans. All strains were grown overnight for 18 h in trypticase soy broth (TSB) or sabouraud dextrose broth (SDB) at the appropriate temperature (25 °C for A. hydrophila, E. tarda, P. aeruginosa, S. iniae, and V. parahemolyticus and 37 °C for the other strains). After an overnight incubation, the bacterial and C. albicans suspensions were diluted to a McFarland turbidity standard of 0.5 (Vitek Colorimeter #52-1210; Hach, Loveland, CO, USA) corresponding to ~10^8 CFU/mL for bacteria and ~10^6 CFU/mL for C. albicans. One-half milliliter of diluted bacterial or C. albicans suspension was added to 9.5 mL of underlay gel containing 5 × 10^6 CFU/mL or 5 × 10^4 CFU/mL in 10 mM phosphate buffer (PB; pH 6.6) with 0.03% TSB or 0.03% SDB and 1% Type I (low EEO) agarose. The purified peptide was serially diluted twofold in 5 μL of acidified water (0.01% HAc), and each dilution was added to 2.5-mm-diameter wells made in the 1-mm-thick underlay gels. After incubation for 3 h at either 25 °C (for A. hydrophila, E. tarda, P. aeruginosa, S. iniae, and V. parahemolyticus) or 37 °C (the other strains), the bacterial or yeast suspension was overlaid with 10 mL of double-strength overlay gel containing 6% TSB or 6% SDB with 10 mM PB (pH 6.6) in 1% agarose. Plates were incubated for an additional 18–24 h, after which the clearing zone diameters were measured. After subtracting the diameter of the well, the clearing zone diameter was expressed in units (0.1 mm = 1 U).
(§2) All tested bacteria and yeast were prepared as described above. The minimal effective concentration (MEC, μg/mL) of the synthetic peptides was calculated as the x-intercept of a plot of units against the log10 of the peptide concentration. […] The antimicrobial assay was performed in triplicate and the results were averaged.

B. subtilis RM125 = test: URDA, MEC; assay type: cell-based, Bacillus subtilis; details: B. subtilis RM125, Gram +, pH 6.6, 37 °C, triplicate averaged
Protocol: as §1, §2

M. luteus ATCC9341 = test: URDA, MEC; assay type: cell-based, Micrococcus luteus; details: M. luteus ATCC9341, Gram +, pH 6.6, 37 °C, triplicate averaged
Protocol: as §1, §2

S. aureus RM4220 = test: URDA, MEC; assay type: cell-based, Staphylococcus aureus; details: S. aureus RM4220, Gram +, pH 6.6, 37 °C, triplicate averaged
Protocol: as §1, §2

E. coli KCTC1116 = test: URDA, MEC; assay type: cell-based, Escherichia coli; details: E. coli KCTC1116, Gram −, pH 6.6, 37 °C, triplicate averaged
Protocol: as §1, §2

E. coli ML35p = test: URDA, MEC; assay type: cell-based, Escherichia coli; details: Gram −, pH 6.6, 37 °C, triplicate averaged
Protocol: as §1, §2

P. aeruginosa KCTC2004 = test: URDA, MEC; assay type: cell-based, Pseudomonas aeruginosa; details: P. aeruginosa KCTC2004, Gram −, pH 6.6, 25 °C, triplicate averaged
Protocol: as §1, §2

S. enterica KCTC2514 = test: URDA, MEC; assay type: cell-based, Salmonella enteric; details: S. enterica KCTC2514, Gram −, pH 6.6, 37 °C, triplicate averaged
Protocol: as §1, §2

A. hydrophila KCTC2358 = test: URDA, MEC; assay type: cell-based, Aeromonas hydrophila; details: fish pathogen A. hydrophila KCTC2358, Gram −, pH 6.6, 25 °C, triplicate averaged
Protocol: as §1, §2

E. tarda H-4 = test: URDA, MEC; assay type: cell-based, Edwardsiella tarda; details: fish pathogen E. tarda H-4, Gram −, pH 6.6, 25 °C, triplicate averaged
Protocol: as §1, §2

S. iniae FP5229 = test: URDA, MEC; assay type: cell-based, Streptococcus iniae; details: fish pathogen S. iniae FP5229, Gram +, pH 6.6, 25 °C, triplicate averaged
Protocol: as §1, §2

[1] = tested on: V. parahemolyticus KCCM41664; test: URDA, MEC; assay type: cell-based, Vibrio parahemolyticus; details: fish pathogen V. parahemolyticus KCCM41664, Gram −, pH 6.6, 25 °C, triplicate averaged
Protocol: as §1, §2

C. albicans KCTC7965 = test: URDA, MEC; assay type: cell-based, Candida albicans; details: C. albicans KCTC7965, yeast, pH 6.6, 37 °C, triplicate averaged
Protocol: as §1, §2

[2] = tested on: E. coli ML35p outer membrane; test: Outer membrane permeabilization, NPN uptake assay; assay type: cell-based, Escherichia coli; details: peptide 40 μg/mL, 3 min after addition, 25 °C, 5 mM HEPES pH 7.2; order 2A > 6A > 1N > 5A; triplicate
Protocol: (§3) The outer membrane-permeabilizing activity of peptides was determined using the 1-N-phenylnapthylamine (NPN) uptake assay as described by Koo et al.. Briefly, an overnight culture of E. coli ML35p was transferred to fresh TSB medium and grown to A600 of 0.5–0.6. Cells were harvested, washed, and resuspended in the same volume of buffer (5 mM HEPES, pH 7.2, 5 mM KCN, and 5 mM glucose). Next, 20 μL of 0.5 mM NPN was added and mixed with 1 mL of cells, and peptide samples (40 μg/mL) were added after 3 min. The increase in fluorescence due to partitioning of NPN into the outer membrane was measured 3 min after the addition of peptides using a spectrofluorometer (LS 50B Fluorescence Spectrometer; PerkinElmer, Waltham, MA, USA) at an excitation wavelength of 350 nm and an emission wavelength of 420 nm at 25 °C. The extent of cytoplasmic membrane permeabilization was determined by measuring β-galactosidase activity in E. coli ML35p using O-nitrophenyl-β-D-galactopyranoside (ONPG), a nonmembrane-permeative chromogenic substrate. Mid-logarithmic phase E. coli cells were washed in 10 mM sodium phosphate buffer (NaPB), pH 7.4, and resuspended in the same buffer with 1.5 mM ONPG. The hydrolysis of ONPG to O-nitrophenol over time was monitored spectrophotometrically at 420 nm following the addition of peptide samples. Membrane permeabilization assays were performed in triplicate and the results were averaged.

[3] = tested on: E. coli ML35p inner cytoplasmic membrane; test: Cytoplasmic membrane permeabilization, β-galactosidase/ONPG assay; assay type: cell-based, Escherichia coli; details: peptide 40 μg/mL, 10 mM NaPB pH 7.4, 1.5 mM ONPG; triplicate
Protocol: as §3

| Substance | Minimal Effectives Concentration (B. subtilis KCTC1021) [µg/mL] | Minimal Effectives Concentration (B. subtilis RM125) [µg/mL] | Minimal Effectives Concentration (M. luteus ATCC9341) [µg/mL] | Minimal Effectives Concentration (S. aureus RM4220) [µg/mL] | Minimal Effectives Concentration (E. coli KCTC1116) [µg/mL] | Minimal Effectives Concentration (E. coli ML35p) [µg/mL] | Minimal Effectives Concentration (P. aeruginosa KCTC2004) [µg/mL] | Minimal Effectives Concentration (S. enterica KCTC2514) [µg/mL] | Minimal Effectives Concentration (A. hydrophila KCTC2358) [µg/mL] | Minimal Effectives Concentration (E. tarda H-4) [µg/mL] | Minimal Effectives Concentration (S. iniae FP5229) [µg/mL] | Minimal Effectives Concentration [1] [µg/mL] | Minimal Effectives Concentration (C. albicans KCTC7965) [µg/mL] | Outer membrane permeabilization ability (NPN fluorescence) [2] | Inner cytoplasmic membrane permeabilization ability (ONPG hydrolysis, 420 nm) [3] |
| --- | --- | --- | --- | --- | --- | --- | --- | --- | --- | --- | --- | --- | --- | --- | --- |
| KLVKTQLKVLK [ofLBP 4N] | 62.5 | 250.0 | 250.0 | 62.5 | 1.5 | 250.0 | >250.0 | 250.0 | >250.0 | >250.0 | >250.0 | 1.3 | 125.0 | no inner or outer membrane permeability | no permeabilization ability |
| KLVKTWLKVLK [ofLBP 5A] | 0.7 | 4.2 | 8.0 | 3.7 | 1.6 | 1.6 | 8.0 | 3.5 | 5.0 | 250.0 | 2.7 | 1.2 | 4.0 | significant outer membrane permeabilization ability | no permeabilization ability |
| MKLVKTWLKVLK-NH2 [ofLBP 6A] | 1.4 | 1.8 | 2.2 | 2.7 | 3.8 | 1.8 | 4.6 | 2.6 | 2.8 | 62.5 | 1.2 | 0.9 | 2.7 | significant outer membrane permeabilization ability | strong permeabilization ability |
| Piscidin 1 [reference compound] | 2.3 | 4.5 | 2.3 | 2.2 | 7.0 | 2.3 | 8.0 | 7.0 | 10.0 | 125.0 | 6.5 | 1.8 | >62.5 | strong permeabilization ability | strong cytoplasmic membrane permeabilizing activity |
| RFPGLMMKLLV-NH2 (C-terminus assumed) [ofLBP 1N] | 1.4 | 1.0 | 5.3 | 5.6 | 1.7 | 0.8 | 6.4 | 1.2 | 4.8 | 125.0 | 5.3 | 2.2 | 5.9 | significant outer membrane permeabilization ability | strong permeabilization ability |
